{"source": "patent US20070077283A1", "about": "“METHOD OF ENHANCING TRANSMUCOSAL DELIVERY OF THERAPEUTIC COMPOUNDS” (Nastech Pharmaceutical Company Inc., priority 2005, published 2007)", "key": {"[1]": {"system": "human-derived tracheal/bronchial epithelial cells (EpiAirway Tissue Model)", "test": "Transepithelial electrical resistance (TER) of an epithelial cell monolayer", "format": "cell-based", "procedure": "Inserts are feed for each day of recovery. TER measurements were accomplished using the Endohm-12 Tissue Resistance Measurement Chamber connected to the EVOM Epithelial Voltohmmeter (World Precision Instruments, Sarasota, Fla.) with the electrode leads. The electrodes and a tissue culture blank insert were equilibrated for at least 20 minutes in MatTek medium with the power off prior to checking calibration. The background resistance was measured with 1.5 ml media in the Endohm tissue chamber and 300 μl media in the blank insert. The top electrode was adjusted so that it was close to, but not making contact with, the top surface of the insert membrane. Background resistance of the blank insert was about 5-20 ohms. […] TER values are a function of the surface area of the tissue. […] By this method of calculation, TER will be expressed as both Ohms*cm2 and percent original TER value. […] Several different lipid types (see Table 1) were screened to select for lipids that are capable of enhancing the permeation of a biological agent across an epithelial cell monolayer. […] A reduction in TER correlates with the ability to enhance the permeation of a molecule and biological agent across an epithelia."}, "[2]": {"system": "human-derived tracheal/bronchial epithelial cells (EpiAirway Tissue Model)", "test": "in vitro", "procedure": "Normal, human-derived tracheal/bronchial epithelial cells will serve as the model cell system for assessing the lipids listed in Table 1. The cells are supplied by MatTek Corp. (Ashland, Mass.) as the EpiAirway™ Tissue Model. The cells are provided as a confluent monolayer on a Millipore Milicell-CM cell culture insert with a pore size of 0.4 μM, inner diameter of 0.8 cm and surface area of 0.6 cm^2 and comprised of transparent hydrophilic Teflon (PTFE). Upon receipt, the membranes are cultured in 1 ml basal media (phenol red-free and hydrocortisone-free Dulbecco's Modified Eagle's Media (DMEM) at 37° C./5% CO2 for 24-48 hours before use. Inserts are feed for each day of recovery.\nThe amount of cell death was assayed by measuring the loss of lactate dehydrogenase (LDH) from the cells using a CytoTox 96 Cytotoxicity Assay Kit (Promega Corp., Madison, Wis.). A treatment of 1% Octylphenolpoly(ethyleneglycolether)x (Triton X-100™) diluted in PBS was used as a lysis control. One percent Triton X-100™ mediated cell lysis was normalized to 100%. For basal-lateral LDH levels, triplicates of 50 μl of the basal media were loaded into a 96-well assay plate. For apical LDH levels, 150 μl of Epi-Cm was added to the apical side of each chamber and mixed by pipeting. One hundred and fifty microliters was then removed and diluted 2-fold prior to performing the LDH assay. All apical LDH assay were performed in triplicate and with 50 μl of the diluted test solution. Fresh, cell-free culture medium will be used as a blank. Total LDH levels were determined by lysing cells in a final concentration of 0.9% Triton-X100™. Fifty microliters of substrate solution was added to each well and the plates incubated for 30 minutes at room temperature in the dark. Following incubation, 50 μl of stop solution was added to each well and the plates read on an optical density plate reader at […]. Cytotoxicity was expressed as a percentage calculated by subtracting the average absorbance of the PBS control wells as the endogenously released LDH level and expressing that value relative to the average Triton-X100 control, which represents total LDH content. [formula] Osmolality\nFor the instant application, phosphate buffered saline (PBS) served as a negative control for both the TER assay and LDH (cytotoxicity) assay. […] TER measurements and LDH levels were taken immediately after a one hour treatment of the cultured cells with each lipid, unless specified otherwrise.\nTER reduction was expressed as the percent decrease in TER value from time zero to one hour post-treatment. Thus, greater percent reduction in TER represents less electrical resistance across the epithelial cell monolayer and consequently greater epithelial cell permeation. Cytotoxicity (LDH levels) for each lipid was expressed as a percent of the LDH levels measured after Triton-X100 treatment of the cells. Triton-X100™ LDH levels were normalized to 100%."}, "[3]": {"system": "human-derived tracheal/bronchial epithelial cells (EpiAirway Tissue Model)", "test": "FITC-Dextran permeation assay across epithelial cell monolayer", "format": "cell-based", "details": "for Mean % FD3 Permeation: FITC-dextran 3000 (Table 4)", "procedure": "Each tissue insert was placed in an individual well containing 1 ml of MatTek basal media. On the apical surface of the inserts, 20 μl of test formulation was applied according to study design, and the samples were placed on a shaker (˜100 rpm) for 1.5 hours at 37° C. FITC-labeled dextran solution was added to inserts apically and a fluorescence measurement was taken from the basolateral media after the incubation period. Two hundred microliters of the basal media for each test formulation was transferred to a dark-wall fluorescent reading plate. Each test formulation was tested in triplicate. Fluorescent intensity was measured at 470 nM with the microplate fluorescence reader FLx800 (Bio-Tek Instruments, Inc., Winooski, Vt.). A FITC labeled dextran with a molecular weight of 3 kDA, 10 kDA, 20 kDA, 40 kDA, 70 kDA and/or 500 kDA was used to assess the ability of individual lipids to deliver a model protein across an epithelia.\n(§1) Permeation is expressed as percent permeation and was calculated as follows: [formula] [formula] Terms\nPBS and 0.3% Triton-X100™ served as […]. […] FD permeation was presented as the percent of FD that crossed from the apical side of the epithelial cell monolayer to the basolateral cell surface."}, "[4]": {"system": "human-derived tracheal/bronchial epithelial cells (EpiAirway Tissue Model)", "test": "Peptide YY (PYY) permeation across epithelial cell monolayer", "format": "cell-based", "procedure": "as §1\nIn the instant example, the ability of permeation enhancing lipids to enhance the permeation of the biological agent, peptide YY (PYY; molecular weight of 3.7 kDa) across the epithelial cell monolayer model system (EpiAirway™) was measured. Also, the efficacy of a permeation enhancing lipid to enhance the permeation of insulin across and epithelial cell layer was measured. Refer to Example 2 of the instant application for general protocol details."}, "[5]": {"system": "ciliary function in epithelial cell cultures", "details": "Hingley et al. 1986; cited from earlier work"}, "[6]": {"system": "human-derived tracheal/bronchial epithelial cells (EpiAirway Tissue Model)", "test": "Cell viability (MTT assay)", "format": "cell-based", "procedure": "Cell viability will be assessed using the MTT assay (MTT-100, MatTek kit). This kit measures the uptake and transformation of tetrazolium salt to formazan dye. Thawed and diluted MTT concentrate is prepared 1 hour prior to the end of the dosing period with the lipid by mixing 2 mL of MTT concentrate with 8 mL of MTT diluent. Each cell culture insert is washed twice with PBS containing Ca^+2 and Mg^+2 and then transferred to a new 96-well transport plate containing 100 μL of the mixed MTT solution per well. This 96-well transport plate is then incubated for three hours at 37° C. and 5% CO2. After the three hour incubation, the MTT solution is removed and the cultures are transferred to a second 96-well feeder tray containing 250 μL MTT extractant solution per well. An additional 150 μL of MTT extractan solution was added to the surface of each culture well and the samples sat at room temperature in the dark for a minimum of two hours and maximum of 24 hours. The insert membrane was then pierced with a pipet tip and the solutions in the upper and lower wells were allowed to mix. Two hundred microliters of the mixed extracted solution along with extracted blanks (negative control) was transferred to a 96-well plate for measurement with a microplate reader. The optical density (OD) of the samples was measured at 570 nm with the background subtraction at 650 nm on a plate reader. Cell viability was expressed as a percentage and calculated by dividing the OD readings for treated inserts by the OD readings for the PBS treated inserts and multiplying by 100. For the purposes of this assay, it was assumed that PBS had no effect on cell viability and therefore represented 100% cell viability."}, "[7]": {"system": "human-derived tracheal/bronchial epithelial cells (EpiAirway Tissue Model)", "test": "TER recovery / TER time course", "format": "cell-based", "details": "lipids 500 μM, PN159 25 μM", "procedure": "TER recovery was calculated as described in the above paragraph.\nReversibility is a critical factor in selecting epithelial cell permeabiling enhancers since the barrier function of the epithelial cells serves as the first line of defense against pathogens and the entrance of toxins into the body. The permeation enhancing lipids C16 PAF; C18 PAF; C16 Enantiomeric PAF; POVPC; C16-04: 1 PC and PGPC were incubated with a monolayer of human-derived tracheal/bronchial epithelial cells (EpiAirway™ Model System) and TER […] The lipid glucosyl sphingosine was also tested. Each permeation enhancing lipid (except PGPC) was applied at a concentration of 1000 μM for 15, 30 and 60 minutes. The permeation enhancing lipid PGPC and the lipid glucosyl sphingosine were applied at a concentration of 500 μM for 1, 3, 5, 30 and 60 minutes. TER measurements were taken immediately after each application to determine how quickly each lipid could reduce TER.\n[…] […] PBS served as a negative control and Triton-X100™ served as a positive control.\nTo asses how quickly the cells recovered after application and removal of the permeation enhancing lipid PGPC and the lipid glucosyl sphingosine, TER measurements were taken at 1, 3, 5, 7, and 9 hours post-treamtnet for each of the prior mentioned timed treatments (i.e., 1, 3, 5, 15, 30 and 60 minutes). TER recovery measures the reversibility of the lipid mediated effect on an epithelia. […] Hyptonic PBS served as a negative control for TER reduction and TER recovery."}, "[8]": {"details": "lipid / PYY 10 mg/mL, listed as PAF-antangonist"}, "[9]": {"details": "lipid 500 μM / PYY 13.67 mg/mL (High)"}}, "data": [{"compound": "CCCCCCCCCCCCCCCCOC[C@H](COP(=O)([O-])OCCCCCC[N+](C)(C)C)OC(C)=O", "note": "[PAF-antagonist, 1-O-Hexadecyl-2-O-Acetyl-sn-Glycero-3-Phospho(N,N,N-trimethyl) Hexanolamine]", "values": [{"measurement": "Mean % of Original TER Value", "setting": "[1]; lipid 500 μM (Table 4)", "value": 20, "unit": "%"}, {"measurement": "Mean % of Original TER Value", "setting": "[1]; lipid 1000 μM, lower value = greater TER reduction (Table 4)", "value": 9, "unit": "%"}, {"measurement": "% Original TER", "setting": "[1]; lipid / PYY 10 mg/mL", "value": "reduced TER below that of the positive control PN159 and equivalent to the positive control Special Sauce"}, {"measurement": "% Original TER", "setting": "[1]; [8]", "value": 2, "unit": "%"}, {"measurement": "Mean % Relative Cytotoxic Effect (LDH)", "setting": "[2]; lipid 500 μM (Table 4)", "value": 8, "unit": "%"}, {"measurement": "Mean % Relative Cytotoxic Effect (LDH)", "setting": "[2]; lipid 1000 μM (Table 4)", "value": 10, "unit": "%"}, {"measurement": "Mean % FD3 Permeation", "setting": "[3]; lipid 500 μM", "value": 6, "unit": "%"}, {"measurement": "% FITC-Dextran Permeation FD10", "setting": "[3]; lipid 1000 μM", "value": 5, "unit": "%"}, {"measurement": "% FITC-Dextran Permeation FD40", "setting": "[3]; lipid 1000 μM", "value": 2, "unit": "%"}, {"measurement": "% FITC-Dextran Permeation FD3", "setting": "[3]; lipid 1000 μM (Table 5)", "value": 11, "unit": "%"}, {"measurement": "Mean % FD3 Permeation", "setting": "[3]; lipid 1000 μM", "value": 11, "unit": "%"}, {"measurement": "permeation of FD3 relative to negative controls", "setting": "[3]; text summary of Table 4", "value": "enhanced the permeation of FD3 above that of the negative controls"}, {"measurement": "% PYY Permeation", "setting": "[4]; lipid / PYY 10 mg/mL", "value": "enhanced permeation of PYY equivalent to or above the positive control PN159"}, {"measurement": "% PYY Permeation", "setting": "[4]; [8]", "value": 2.4, "unit": "%"}]}, {"compound": "2-alkyl-4-hydroxyquinolines [pyo compound]", "values": [{"measurement": "concentration producing ciliostasis / inhibiting ciliary motility", "setting": "[5]", "value": 50, "unit": "µg/mL"}]}, {"compound": "CCCCCCCCCCCCC/C=C/[C@@H](O)[C@@H](N)CO[C@@H]1O[C@H](CO)[C@@H](O)[C@H](O)[C@H]1O", "note": "[Glucosyl-sphingosine, D-Glucosyl-β1-1′-D-erythro-Sphingosine]", "values": [{"measurement": "% Original TER", "setting": "[1]; lipid 500 μM / PYY 13.67 mg/mL (High), listed as Glucosyl Sphingosine", "value": 12, "unit": "%"}, {"measurement": "% Original TER", "setting": "[1]; lipid 500 μM / PYY 13.67 mg/mL (High), listed as glucosyl sphingosine", "value": "reduced TER to levels equivalent of PN159"}, {"measurement": "% FITC-Dextran Permeation FD3", "setting": "[3]; lipid 500 μM (Table 5)", "value": 4, "unit": "%"}, {"measurement": "MTT levels (cell viability)", "setting": "[6]; compared with PBS negative control (Example 5)", "value": "MTT levels comparable to that of the PBS negative control"}, {"measurement": "% Cell Viability", "setting": "[6]; [9]", "value": 109, "unit": "%"}, {"measurement": "time to full TER recovery (PBS control levels)", "setting": "[7]; after 1, 3, 5, 15 and 30 minute treatments", "value": "fully recovered within one hour"}, {"measurement": "time to full TER recovery (PBS control levels)", "setting": "[7]; after 60 minute treatment", "value": "did not reach PBS TER control levels until three hours post-treatment"}, {"measurement": "% PYY Permeation", "setting": "[4]; [9]", "value": 1.17, "unit": "%"}]}, {"compound": "rhamnolipid", "values": [{"measurement": "effect of limited exposure of tracheal explants", "setting": "[5]", "value": "ciliostasis"}]}]}
